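Test compounds were applied to cells in 96-well plates for 48 hours at 5 doses. GI50: concentration for 50% inhibition of growth.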 The source made the active and inactive calls. Rule as the data show it: active = GI50 up to about 1.1 µM and inactive = higher.
Assays:
Experiment in all cases: DTP human tumour cell line panel, 48 h
CCRF-CEM = tested on: CCRF-CEM
COLO 205 = tested on: COLO 205
HCC 2998 = tested on: HCC 2998
HL-60 = tested on: HL-60
HOP-92 = tested on: HOP-92
K562 = tested on: K562
KM12 = tested on: KM12
Malme-3M = tested on: Malme-3M
NCI-H226 = tested on: NCI-H226
NCI/ADR-RES = tested on: NCI/ADR-RES
OVCAR-4 = tested on: OVCAR-4
SF-268 = tested on: SF-268
SK-MEL-5 = tested on: SK-MEL-5
SN12C = tested on: SN12C
SNB-19 = tested on: SNB-19
SNB-75 = tested on: SNB-75
SR = tested on: SR
TK-10 = tested on: TK-10
UACC-257 = tested on: UACC-257
UACC-62 = tested on: UACC-62

Measured: GI50

COc1ccc2c(c1)CC1Cc3ccccc3CCN1C2 (stereo not drawn)
inactive: CCRF-CEM 98.6 µM | COLO 205 35.5 µM | HCC 2998 35.2 µM | HL-60 53.1 µM | HOP-92 27.7 µM | K562 56.2 µM | KM12 21.6 µM | Malme-3M 42.3 µM | NCI-H226 89.1 µM | NCI/ADR-RES 52 µM | OVCAR-4 > 100 µM | SF-268 > 100 µM | SK-MEL-5 20.2 µM | SN12C > 100 µM | SNB-19 55 µM | SNB-75 > 100 µM | SR 65.8 µM | TK-10 24.5 µM | UACC-257 52.8 µM | UACC-62 55.1 µM

CC(=O)OCC1OC(n2c(-c3ccc(C)cc3)cc(-c3ccco3)c(C#N)c2=S)C(OC(C)=O)C(OC(C)=O)C1OC(C)=O (stereo not drawn)
inactive: CCRF-CEM > 100 µM | COLO 205 > 100 µM | HCC 2998 > 100 µM | HL-60 > 100 µM | HOP-92 16.6 µM | K562 > 100 µM | KM12 > 100 µM | Malme-3M > 100 µM | NCI-H226 25.2 µM | NCI/ADR-RES 84.3 µM | OVCAR-4 > 100 µM | SF-268 56.8 µM | SK-MEL-5 65.2 µM | SN12C > 100 µM | SNB-19 32.5 µM | SNB-75 25.1 µM | SR > 100 µM | TK-10 52.1 µM | UACC-257 > 100 µM | UACC-62 18.2 µM

Cc1ccc(S(N)(C(=O)Nc2cccc3ccccc23)[N+](=O)[O-])cc1 (stereo not drawn)
inactive: CCRF-CEM 42.3 µM | COLO 205 > 100 µM | HCC 2998 > 100 µM | HL-60 39.3 µM | HOP-92 > 100 µM | K562 55 µM | KM12 > 100 µM | Malme-3M > 100 µM | NCI-H226 > 100 µM | NCI/ADR-RES > 100 µM | OVCAR-4 > 100 µM | SK-MEL-5 93.3 µM | SN12C > 100 µM | SNB-19 92.5 µM | SNB-75 > 100 µM | SR 58.9 µM | TK-10 72.4 µM | UACC-257 > 100 µM | UACC-62 > 100 µM

COc1cc(Br)c(CC2C3=C(CCN2C(=O)C2CCC2)CC(=O)CC3)cc1O (stereo not drawn)
inactive: CCRF-CEM 25.5 µM | COLO 205 19.5 µM | HCC 2998 26.7 µM | HL-60 5.9 µM | HOP-92 20.4 µM | K562 21.6 µM | KM12 27.2 µM | Malme-3M 28.3 µM | NCI-H226 41.9 µM | NCI/ADR-RES 27.5 µM | SF-268 31.3 µM | SK-MEL-5 28.6 µM | SN12C 51.3 µM | SNB-19 51.2 µM | SNB-75 26.8 µM | SR 38.4 µM | TK-10 30.4 µM | UACC-257 27.9 µM | UACC-62 15.6 µM

Source: ChEMBL document CHEMBL1201862, “PubChem BioAssay data set” (2004)
